Patent US6300350A, “Treatment of emphysema using RARy selective retinoid agonists” (priority 2000, dated 2001)

Experiments:
[1] = system: elastase-induced emphysema; assay: Alveolar repair in rat model of elastase-induced emphysema, intraperitoneal; type: in vivo, male Sprague Dawley rats; design: Alveolar Area: unit not given here; settings: for % Repair / Alveolar Area: 0.5 mg/kg ip once daily, from 21 days post injury, 14 days; for Alveolar Area: naive 1637 +/- 153, elastase + vehicle 3570 +/- 319; for alveolar repair (in words): elastase-treated rats, 0.5 mg/kg ip; for light micrographs of lung sections (in words): rat lung damaged by elastase and then treated, compared to normal rat lung
Experimental: Animals were divided into treatment groups of approximately eight. […] Three weeks post injury ATRA or a RAR selective agonist was dissolved in DMSO (20 mg/ml) and stored at -20 C. Fresh working stocks were prepared fresh daily by dilution in corn oil to a final concentration of 2 mg/ml. […] Control groups were challenged with elastase and 21 days later treated with Vehicle (DMSO/PBS) for 14 days. Animals were sacrificed 24 hours after the last dose of by exsanguination under deep anesthesia. Blood was collected at time of exanguination for analysis of changes in blood chemistry from respective treatments. The lungs were inflated with 10% neutral buffered formalin by intratracheal instillation at a constant rate (1 ml/gram body mass/min). The lung was excised and immersed in fixative for 24 hours prior to processing. Standard methods were used to prepare 5 um paraffin sections. Sections were stained with Hematoxylin and Eosin (H%E). Computerized Morphometric analysis was performed to determine the average alveolar size and alveolar number.

RARα [2] = target: T1, RARα (Homo sapiens, UniProt P10276); assay: Transactivation, RARα; type: cell-based
T1 sequence (P10276 1-462): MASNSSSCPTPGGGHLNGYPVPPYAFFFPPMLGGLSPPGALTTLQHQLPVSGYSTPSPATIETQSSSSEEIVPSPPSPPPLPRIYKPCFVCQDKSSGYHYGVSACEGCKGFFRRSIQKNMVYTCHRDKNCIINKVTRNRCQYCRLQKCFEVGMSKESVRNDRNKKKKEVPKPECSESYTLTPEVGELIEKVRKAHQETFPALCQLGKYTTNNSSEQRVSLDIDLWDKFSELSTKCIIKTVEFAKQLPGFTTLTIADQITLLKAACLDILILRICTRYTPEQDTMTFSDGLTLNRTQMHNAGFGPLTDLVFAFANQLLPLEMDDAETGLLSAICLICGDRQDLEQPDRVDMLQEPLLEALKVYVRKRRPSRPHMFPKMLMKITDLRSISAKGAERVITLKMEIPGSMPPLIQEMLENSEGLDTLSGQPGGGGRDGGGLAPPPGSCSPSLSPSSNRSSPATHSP
Description: (§1) As used herein, the term "transactivation" refers to the ability of a retinoid to activate the transcription of a gene where the gene transcription is initiated by the binding of a ligand to the particular retinoic acid receptor being tested, i.e., RARα, RARβ, or RARγ. Determining the ability of a compound to transactivate a retinoic acid receptor may be performed by methods known to those of skill in the art. […] Apfel etal., Proc. Nat.

RARβ [3] = target: T2, RARβ (Homo sapiens, UniProt P10826); assay: Transactivation, RARβ; type: cell-based
T2 sequence (P10826 1-455): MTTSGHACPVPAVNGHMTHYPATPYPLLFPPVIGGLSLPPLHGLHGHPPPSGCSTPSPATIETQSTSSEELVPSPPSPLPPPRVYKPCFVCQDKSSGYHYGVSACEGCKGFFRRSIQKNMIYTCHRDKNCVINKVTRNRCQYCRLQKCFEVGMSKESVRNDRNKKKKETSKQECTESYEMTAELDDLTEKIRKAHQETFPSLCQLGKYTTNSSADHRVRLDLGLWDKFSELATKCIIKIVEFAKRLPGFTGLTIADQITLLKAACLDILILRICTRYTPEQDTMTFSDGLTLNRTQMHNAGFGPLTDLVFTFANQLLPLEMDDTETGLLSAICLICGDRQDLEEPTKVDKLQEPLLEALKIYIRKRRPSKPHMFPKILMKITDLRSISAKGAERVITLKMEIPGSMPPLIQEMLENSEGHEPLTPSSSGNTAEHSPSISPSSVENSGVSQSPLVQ
Description: as §1

RARα [4] = target: T1, RARα; assay: Binding, RARα (ligand binding assay)
Description: (§2) The RARγ agonist selectivity of a compound can be determined by routine ligand binding assays known to one of skill in the art such as described in C. Apfel et al., Proc. Nat.

RARβ [5] = target: T2, RARβ; assay: Binding, RARβ (ligand binding assay)
Description: as §2

RARγ [6] = target: T3, RARγ (Homo sapiens, UniProt P13631); assay: Binding, RARγ (ligand binding assay)
T3 sequence (P13631 1-454): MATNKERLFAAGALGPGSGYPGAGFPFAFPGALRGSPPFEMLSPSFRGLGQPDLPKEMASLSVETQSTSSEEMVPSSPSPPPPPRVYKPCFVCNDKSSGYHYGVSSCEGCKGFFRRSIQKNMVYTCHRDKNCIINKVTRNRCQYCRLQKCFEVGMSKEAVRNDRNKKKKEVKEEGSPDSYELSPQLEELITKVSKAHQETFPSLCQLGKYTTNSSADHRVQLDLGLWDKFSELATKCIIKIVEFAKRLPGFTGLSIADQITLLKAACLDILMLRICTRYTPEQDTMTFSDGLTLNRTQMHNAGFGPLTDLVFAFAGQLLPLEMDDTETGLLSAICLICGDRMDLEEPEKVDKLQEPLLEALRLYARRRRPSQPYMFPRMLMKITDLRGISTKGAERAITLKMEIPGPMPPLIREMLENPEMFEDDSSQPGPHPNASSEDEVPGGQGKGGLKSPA
Description: as §2

tropoelastin gene = assay: RAR transactivation of steady state tropoelastin gene in normal human lung fibroblasts (CCD-16Lu); type: cell-based; settings: for Tropo-elastin Expression: CCD-16Lu, 1×10^-7 M, RT-PCR, triplicate, untreated control 30.90; for tropoelastin gene induction (in words): human lung fibroblasts, compared to the control
Experimental: Transactivation of the tropoelastin gene in normal human lung fibroblasts (CCD-16Lu) was performed as described below. Cells were grown to confluence at which time fresh media +/- ATRA or selective retiniod was added to the basal culture. ATRA and/or selective retiniods were used at a concentration of 1×10^-7 M. The cell layer was lysed using a guanidinium-based buffer (TRIZOL/Sigma) for RNA extraction and analysis. Amplification of tropoelastin and GAPDH RNA was performed by standard quantitative RT-PCR (TAQMAN, Perken/Elmer) using appropriate selective primers. Tropo-elastin gene expression was normalized to the expression of standard house-keeping gene (GAPDH).
Samples were run in triplicate.

RARγ [7] = target: T3, RARγ; assay: Transactivation, RARγ; type: cell-based
Description: as §1

[8] = Plasma triglyceride levels in rats; type: in vivo
Experimental: Experimental emphysema was induced in rats as described in Example 2. Three (3) weeks post injury animals were treated with vehicle (Capmul solution) or retinoids prepared in Capmul and dosed orally at 1, 3, and 10 mg/kg body weight. Animals were treated for 14 days prior to termination of study. Lung harvest and blood collection was performed as described in Example 2.
Quantitation of triglycerides contained in rat plasma was performed after using established procedures in a contact clinical laboratory facility. Briefly, plasma triglycerides were converted to dihdroxyacetone and H2 O2, by sequential treatment of plasma with lipase and glycerokinase according directions described by manufacturer of triglycerides/GPO kit (Boehringer Mannheim #1488872). H2 02 was quantitated calorimetrically in a Hitachi 911 Chemistry Analyzer. In rats normal triglyceride levels are 75-175 mg/dl.
Dosage was at 1 mg/kg/PO daily for two weeks. […] Therefore, it appears that RARα selective activity is linked to elevated triglyceride levels.

experimental emphysema = assay: Alveolar repair in rat experimental emphysema, oral dosing; type: in vivo, rats; settings: 1 mg/kg/PO daily for two weeks
Experimental: Three (3) weeks post injury animals were treated with vehicle (Capmul solution) or retinoids prepared in Capmul and dosed orally at 1, 3, and 10 mg/kg body weight. Animals were treated for 14 days prior to termination of study.
Dosage was at 1 mg/kg/PO daily for two weeks.

alveolar septation = settings: postnatal administration; newborn rats; cited from earlier work
[9] = plasma, 1 mg/kg/PO daily for two weeks
[10] = plasma, 1 mg/kg/PO daily for two weeks, normal rat 75-175 mg/dl

| Compound | % Repair [1] [%] | Alveolar Area [1] | alveolar repair (in words) [1] | IC50 (RARγ [6]; Table III) [µM] | EC50 (RARγ [7]; Table III) [µM] | triglyceride levels (in words) [8, 9] | [Triglyceride] [8, 10] [mg/dL] | % Repair (experimental emphysema) [%] | EC50 (RARβ [3]; Table III) [µM] | IC50 (RARβ [5]; Table III) [µM] | also measured |
| --- | --- | --- | --- | --- | --- | --- | --- | --- | --- | --- | --- |
| CC1(C)CCC(C)(C)c2cc(C(=O)Nc3ccc(C(=O)O)cc3)ccc21 [RAR Agonist 9] | < 20 | 3323 +/- 406 | do not induce alveolar repair |  |  |  |  |  |  |  |  |
| CC(C)COc1ccc(-c2ccc3cc(C(=O)O)ccc3c2)cc1C(C)(C)C [RAR Agonist 2, reference compound] | < 20 | 3653 +/- 550 | do not induce alveolar repair | 0.3 | 0.16 |  |  |  |  |  | EC50 (RARα [2]; Table II): 2 µM; EC50 (RARβ [3]; Table II): 0.039 µM; IC50 (RARα [4]; Table II): 1 µM; IC50 (RARβ [5]; Table II): 0.028 µM; light micrographs of lung sections (in words) [1]: did not reverse the change caused by elastase treatment; IC50 (RARγ [6]; Table II): 0.3 µM; Tropo-elastin Expression (tropoelastin gene): 1.85 (Elastin/GAPDH) × 10^5; tropoelastin gene induction (in words) (tropoelastin gene): did not induce the tropoelastin gene; EC50 (RARγ [7]; Table II): 0.16 µM |
| CC1=C(/C=C/C(C)=C/C=C/C(C)=C\C(=O)O)C(C)(C)CCC1 [RAR Agonist 8, reference compound] |  |  |  |  |  | either on the high end of normal or elevated | 178 | 57.1 |  |  |  |
| CCCCCC(=O)c1cc2c(cc1/C=C/c1ccc(C(=O)O)cc1)C(C)(C)CCC2(C)C [RAR Agonist 5] | 56 | 2502 +/- 243 | markedly induce alveolar repair | 0.77 | 0.104 | do not cause elevation in the triglyceride levels | 119 | 40 | 10 | 5.4 | EC50 (RARα [2]; Table III): 10 µM; IC50 (RARα [4]; Table III): 2.3 µM |
| CC1=C(/C=C/C(C)=C\C=C\C(C)=C\C(=O)O)C(C)(C)CCC1 [RAR Agonist 10, reference compound] |  |  |  |  |  | either on the high end of normal or elevated | 273 | 58.3 |  |  |  |
| CC1(C)CCOc2ccc(C(=O)/C=C/c3ccc(C(=O)O)cc3)cc21 [RAR Agonist 6] | > 70 | 1909 +/- 207 | markedly induce alveolar repair | 2.41 | 0.015 | do not cause elevation in the triglyceride levels | 140 | 39 | 0.016 | 2.1 | EC50 (RARα [2]; Table III): 10 µM; IC50 (RARα [4]; Table III): 3.1 µM |
| O=C(O)c1ccc2cc(-c3ccc(O)c(C45CC6CC(CC(C6)C4)C5)c3)ccc2c1 [RAR Agonist 7] | > 70 | 1817 +/- 241 | markedly induce alveolar repair |  |  |  |  | 66 | 2.3 | 4.6 | [Triglyceride] ([8]; rat, in vivo, po, 1 mg/kg): 114 mg/dL; triglyceride levels (in words) ([8]; rat, in vivo, po, 1 mg/kg): do not cause elevation in the triglyceride levels |
| CC1=C(/C=C/C(C)=C/C=C/C(C)=C/C(=O)O)C(C)(C)CCC1 [retinoic acid] |  |  |  |  |  |  |  |  |  |  | number of alveoli / septation in lungs (in words) (alveolar septation): increases the number of alveoli in rats |
| O=C(O)c1ccc(NC(=O)c2cc(C(F)(F)F)cc(C(F)(F)F)c2)cc1 [RAR Agonist 1, reference compound] | < 20 | 3058 +/- 160 | do not induce alveolar repair | 10 | 10 |  |  |  |  |  | EC50 (RARα [2]; Table II): 0.0165 µM; EC50 (RARβ [3]; Table II): 10 µM; IC50 (RARα [4]; Table II): 0.3 µM; IC50 (RARβ [5]; Table II): 10 µM; light micrographs of lung sections (in words) [1]: did not reverse the change caused by elastase treatment; IC50 (RARγ [6]; Table II): 10 µM; Tropo-elastin Expression (tropoelastin gene): 13.93 (Elastin/GAPDH) × 10^5; tropoelastin gene induction (in words) (tropoelastin gene): did not induce the tropoelastin gene; EC50 (RARγ [7]; Table II): 10 µM |
